Source: patent publication US20140371137A1, “PREPARATION OF PNA-6-AMINOGLUCOSAMINE CONJUGATES AS ANTIVIRAL AGENTS” (priority 2013, published 2014)

Assays:
HCV 5'NTR RNA = experiment: Gel electrophoretic mobility shift analysis (EMSA) of PNA-glucosamine conjugate binding to HCV 5'NTR RNA transcript; settings: for gel retardation of the labeled RNA: 20 nM HCV 5'NTR RNA transcript
Protocol: FIG. 10. Stoichiometry of binding of PNA-glucosamine conjugate to its target sequence: (A) The PCR product corresponding to domains III and IV of 5′NTR and the 36 nucleotide of the N-terminal coding sequence of the HCV core were transcribed to generate 244-base runoff transcripts using a T7 transcription kit from Roche Applied Sciences. The 20 nM of internally 32P labeled HCV 5′NTR RNA transcript was incubated either with various concentrations of PNA-glucosamine conjugate complementary to sequence 352-338 in domain IV of the 5′NTR or (B) scramble PNA-glucosamine conjugate. Binding of the PNA-glucosamine conjugate (PNAHCV 352-338) to its target sequence was evaluated by gel electrophoretic mobility shift analysis (EMSA). Lane 1, control without PNA conjugate; lane 2, 10 nM of PNA conjugate; lane 3, 15 nM of PNA conjugate; lane 4, 20 nM of conjugate, lane 5, 25 nM of conjugate.
Target specificity of antisense PNA: Using a PNA-glucosamine conjugate targeted to the translation initiation window (352-338: […]) in Domain IV of HCV 5′NTR, we have shown that it has great specificity for the targeted sequence. The PNA-glucosamine conjugate ([…]) forms a tight complex with HCV RNA at a stoichiometric ratio (FIG. 10).

[1] = test system: HCV subgenomic replicons in MH14 cells; experiment: Inhibition of viral translation and replication in MH14 cells carrying HCV subgenomic replicons; type: cell-based

With “PNAHCV353-338: PNA-glucosamine conjugate targeted to the translation initiation window (352-338: TTCGTGCTCATGGTG) in Domain IV of HCV 5'NTR (all peptide nucleic acid (PNA); glucosamine conjugate attached)” the “gel retardation of the labeled RNA” value (HCV 5'NTR RNA; 1:0.5 ratio of target RNA to PNA conjugate) was 50%, the “gel retardation of the labeled RNA” value (HCV 5'NTR RNA; 1:0.75 ratio of target RNA to PNA conjugate) was 75% and the “gel shift of the target RNA” value (HCV 5'NTR RNA; stoichiometric ratios of 1:1 or greater) was “complete gel shift”. For the same substance, the “HCV translation (viral protein NS5B, Western blot)” value ([1]; 72 h, 50, 100 and 200 nM conjugate (FIG. 13A)) was “efficiently blocked at a subnanomolar concentration” and the “HCV replication (viral RNA, RT PCR)” value ([1]; 72 h, 50, 100 and 200 nM conjugate (FIG. 13B)) was “efficiently blocked at a subnanomolar concentration”.
